Columns and labels:
DU145 cell line = DU145 cell line treated with 9NC; cited from earlier work
DU145 cells = assay: PARP cleavage Western blot, DU145 cells treated with CPT; type: cell-based, human; settings: 100 nM CPT 24 hours, vs untreated control cells
Experimental: FIGS. 1A-D are a series of photomicrographs and bar graphs showing ECV-mediated reversal of apoptosis resistance and sensitivity. A, B. ECVs were isolated from DU145 S and DU145 R prostate cells. The ECVs were resuspended in PBS. DU145 S cells were co-cultured with DU145 R ECVs and DU145 R cells were co-cultured with DU145 S ECVs. Non-ECV and ECV co-cultured cells were treated with 100 nM of the anticancer agent camptothecin (CPT) for 24 hours and examined for PARP cleavage and actin via Western blot analysis to measure apoptosis. C, D. The same experiment from A and B was repeated and the samples were examined for apoptosis via propidium iodide staining using a flow cytometer. […]
Total cell extracts were prepared as previously described, and protein concentrations of lysates were determined using a Bradford assay kit (BioRad). […] Proteins recognized by antibodies were detected by enhanced chemilluminescence reagents (GE Healthcare).
To investigate the effects of ECV-mediated transfer of chemoresistance in prostate cancer, the mechanism of resistance to camptothecin (CPT) was studied in human prostate cancer cell lines. […] After six days, both groups were treated with CPT, cells were harvested and analyzed for apoptosis via Poly ADP Ribose Polymerase (PARP) cleavage. […] The same experiment was repeated, and the cells were analyzed for apoptosis via flow cytometry.

MDR breast cancer cells = assay: PARP cleavage Western blot, MDR cells treated with Dox; type: cell-based, human; settings: Dox 24 hours
Experimental: (§1) FIG. 8 is a photomicrograph showing MCF7 and MDR breast cancer cells treated with the indicated doses of doxorubicin (Dox) for 24 hours. Western blot analysis was performed to measure the cleavage of PARP (an indicator of apoptosis induction).
FIG. 9 is a photomicrograph of a Western blot analysis for PARP cleavage and actin in protein lysates isolated from MDR (resistant) cells that were co-cultured with MCF7 (sensitive) ECVs for three days then treated with the indicated concentrations of Dox.
(§2) The transfer of chemosensitivity of MCF7 (sensitive) and MCF/MDR (resistant) (MDR) breast cancer cells that are sensitive or resistant, respectively to doxorubicin (Dox) was explored. These cells, similar to the prostate cancer cells, were grown in medium with serum that was depleted of ECVs.
A reciprocal experiment was performed and ECVs from MCF-7 (sensitive) cells were isolated and co-cultured with MDR (resistant) cells for three days. The MDR (resistant) cells were treated with two doses of Dox.

MCF7 breast cancer cells = assay: PARP cleavage Western blot, MCF7 cells treated with Dox; type: cell-based, human; settings: Dox 24 hours
Experimental: as §1, §2

MCF-7 cells = assay: Apoptosis by flow cytometry, MCF-7 cells treated with Dox; type: cell-based, human; settings: 10 nM Dox 24 hours
Experimental: FIG. 10 is a bar graph showing the amount of apoptosis in MCF-7 cells that were treated with 10 nM Dox for 24 hours in the presence or absence of MDR ECVs. Cells were harvested and apoptosis measured by flow cytometry. A paired t-test was performed * comparing Dox-treated MCF7 cells and MCF7 cells co-cultured with MDR ECVs. * A paired t-test (p<0.0005) was performed comparing the reduction in soft agar colony formation between Dox treated and MCF7+MDR ECVs+Dox.
The reciprocal experiment from FIG. 9 was performed, and ECVs were isolated from MDR (resistant) cells and co-cultured with MCF7 (sensitive) cells for three days and treated with 10 nM Dox. The cells were analyzed for apoptosis induction by flow cytometry.

CC[C@@]1(O)C(=O)OCc2c1cc1n(c2=O)Cc2cc3c([N+](=O)[O-])cccc3nc2-1 [9NC, 9-nitrocamptothecin]
apoptosis (DU145 cell line): extensive apoptosis

CC[C@@]1(O)C(=O)OCc2c1cc1n(c2=O)Cc2cc3ccccc3nc2-1 [CPT, camptothecin]
PARP cleavage (DU145 cells): increase in PARP cleavage

COc1cccc2c1C(=O)c1c(O)c3c(c(O)c1C2=O)C[C@@](O)(C(=O)CO)C[C@@H]3O[C@H]1C[C@H](N)[C@H](O)[C@H](C)O1 [Dox, doxorubicin]
apoptosis measured by cleavage of PARP (MDR breast cancer cells): remained resistant
apoptosis measured by cleavage of PARP (MCF7 breast cancer cells): sensitive to dose-dependent induction of apoptosis
apoptosis (MCF-7 cells): underwent significant apoptosis

Source: patent US20150297639A1, “TREATING CANCER” (Rhode Island Hospital, A Lifespan-Partner, priority 2012, published 2015)
